Measured values reported in US4444691A, “11-Cyano-prostaglandins of the F-series” (American Cyanamid Company, priority 1982, dated 1984).
Like-named read-outs stand apart in the source and are kept apart here.

Assays:
gastric acid secretion = assay: Gastric acid secretion inhibition, modified Shay rat procedure; type: in vivo, rats (male, CFE strain); details: Rattus norvegicus, read-out: Percent inhibition of gastric acid secretion
Excerpt: The novel compounds of the present invention are effective inhibitors of gastric acid secretion and of ulcer development in experimental animals, and thus are potentially valuable as agents for the control of gastric secretion and of gastric erosion and as anti-ulcer agents. Gastric acid secretion inhibitory action is usually measured by the "Shay rat" procedure ^(1,2) with some modifications as follows.
(1) Shay et al., Gastroenterology, 5, 43 (1945).
The rats (male, CFE strain) were starved for 48 hours (water was given ad libitum) to permit evacuation of stomach contents. On the morning of the experiment, under ether anesthesia, the abdominal region was shaved and a midline incision (1-11/2" ) was made with a scapel. With the help of a closed curved hemostat the duodenum was picked up. Upon getting the duodenum into view, fingers were used to pull the stomach through the opening, the stomach was then gently manipulated with fingers to rid stomach of air and residual matter which were pushed through the pylorus. Two-5 inch sutures were drawn under the pyloric-duodenal puncture. A ligature at the juncture, was formed with one of the threads. The second ligature was also formed but not tightened.
The test compound or the vehicle, usually 1 ml./100 g. body weight, were injected into the duodenum as close as possible to the first ligature. After injection the second ligature was tightened below the injection site to minimize leakage. The stomach was placed back through the opening into the abdominal cavity, the area of incision was washed with saline and the incision was closed with autoclips. (Occasionally, instead of an intraduodenal injection, animals were dosed by the oral or subcutaneous route. In the latter case, dosing was done thirty to sixty minutes before the operation.)
The abdominal cavity was exposed by cutting with scissors and the esophagus close to the stomach was clamped off with a hemostat, the stomach was removed by cutting above the hemostat (the esophagus was cut) and between the two sutures. Extraneous tissue was removed, the stomach washed with saline and blotted on gauze. A slit was carefully made in the stomach which was held over a funnel and the contents were collected in a centrifuge tube. The stomach was further cut along the outside edge and turned inside out. Two ml. H2 O were used to wash the stomach contents into the respective centrifuge tube. The combined stomach contents and wash were then centrifuged out for 10 minutes in the International Size 2 Centrifuge (setting at 30). The supernatant was collected, volume measured and recorded, 2 drops of a phenylphthalein indicator (1% in 95% ethanol) were added and the solution was titrated with 0.02 N NaOH (or with 0.04 N NaOH when large volumes of stomach contents were encountered) to pH 8.4 (because of usual coloring of the stomach contents, phenolphthalein was only used to permit visual indication that the end point was near) and the amount of acid present was calculated.
Compounds inducing inhibition of gastric acid secretion of 20% or more were considered active. In a representative operation, and merely by way of illustration, the results obtained with this assay with typical compounds of the present invention are given in Table II below.

[1] = test system: ulcerogenic effects induced by indomethacin (stomach ulcers); type: in vivo, rat; details: indomethacin 20 mg/kg s.c., score 0-4
Experimental: It is further to be noted that although prostaglandins in general are not effective when administered by oral route, the compounds of this invention are effective orally. The assay to determine the protective effect of these compounds is carried out in the following manner.
Rats were starved for 48 hours (water was given ad libitum). Indomethacin (20 mg./kg. of body weight) was administered by the subcutaneous route and one-half the dose of the test compound was administered by gavage at the same time. After three hours, the second half of the test compound was administered, also by gavage. Five hours after the administration of indomethacin the animals were decapitated and the stomachs removed. The stomachs were washed with distilled water, blotted on gauze, cut along the larger curvature, and the contents rinsed with distilled water. The stomachs were spread out, pinned on a cork and visualized under magnifying glass for ulcers. The criteria for scoring of ulcers was as previously reported. [Abdel-Galil et al. Brit. J. Pharmac. Chemotherapy 33:1-14 (1968)]. […]
1 Petechial hemorrhage of pin point ulcers
3 Many ulcers, a few large
4 Many ulcers, mainly large
Control animals treated with indomethacin but not test compound consistently give scores of about 2.5-3.5. Control animals treated with neither indomethacin not test compound give scores of about 0.5-0.8. Compounds diminishing the control ulcer score by 0.5 unit or more are considered to be active.

[2] = test system: basal gastric acid secretion; assay: Inhibition of total acid output (basal gastric acid secretion) in the acute gastric fistula rat; type: in vivo, female Sprague-Dawley rats; details: intraduodenal; for inhibition in vivo at 10 mg/kg / inhibition in vivo at 2.5 mg/kg / inhibition in vivo at 5 mg/kg: Rattus norvegicus
Experimental: Inhibition of basal gastric acid secretion can be determined by the following procedure.
Female Sprague-Dawley rats weighing 140-160 grams are fasted in individual cages for 18-24 hours. The rats are then lightly anesthetized with ether and their front teeth extracted to avoid destruction of the plastic cannula. A midline incision is then made and the stomach and duodenum exposed. A flanged polyvinyl tube is inserted into the fundic portion of the stomach and secured with a purse string suture line using 4-O Mersilene. The rat is then dosed by injection of the compound into the duodenum (1.0 ml. per 100 gram body weight). After dosing, the abdominal wall and skin are closed using metal wound clips. The rat is replaced in a cage containing a longitudinal slit to allow the polyvinyl tube to hang freely. An 8 ml. plastic collecting tube is attached to the flanged cannula and hangs freely below the cage. The first 30 minute sample is discarded designating this time as zero. The collecting tube is attached again and samples removed at the end of 60 and 120 minutes. These samples are referred to as "A" and "B" in the table. The hourly samples are then transferred to a 15 ml. centrifuge and centrifuged for 5-10 minutes. Total and sediment volume are then recorded with the supernatent volume being used as volume of secretion. A 1 ml. or less aliquot is then removed and placed in a 50 ml. beaker containing 10 ml. of distilled water. This sample is then titrated using 0.01 N NaPH to pH 7.0 using a Beckman zeromatic pH meter. Volume, titratable acidity (mew/L) and total acid output (ueq/hour) are recorded. Percent inhibition is determined by comparison with the appropriate control. Groups of three rats were used for preliminary testing, and groups of six rats were used for dose-response evaluations. All compounds are administered in a vehicle consisting of 0.5% methocel, 0.4% tween 80, and saline at a constant volume of 1 ml./100 gram rat. Samples are dispersed by sonification. Percent inhibition is calculated on basis of concurrent vehicle control.
In Table III which follows is given the effect on total acid output after 60 minutes and 120 minutes of intraduodenal dose, of representative compounds of this invention.

[3] = total oral dose 50 mg/kg, controls 2.5-3.2
[4] = 1 h, 10 mg/kg, 60 min, read-out: % Inhibition of total acid output, after 60 minutes (A)
[5] = 2 h, 10 mg/kg, 120 min, read-out: % Inhibition of total acid output, after 120 minutes (B)
[6] = total oral dose 25 mg/kg, controls 2.7-3.9
[7] = 1 h, 60 min, read-out: % Inhibition of total acid output, after 60 minutes (A)
[8] = 2 h, 120 min, read-out: % Inhibition of total acid output, after 120 minutes (B)

## CCCCC[C@@H](/C=C/[C@H]1[C@H](C)CC(=O)[C@@H]1C/C=C\CCCC(=O)OC)OC(C)=O [l-11α-methyl-11-deoxyprostaglandin-E2 15-O--acetyl methyl ester]
Gastric acid secretion; intraduodenal
  inhibition in vivo at 50 mg/kg: 63%

## CCCCC[C@@H](/C=C/[C@H]1[C@H](SC)CC(=O)[C@@H]1C/C=C\CCCC(=O)OC)OC(C)=O [l-11α-methylthio-11-deoxyprostaglandin-E2 15-O--acetate methyl ester]
[1]; [3]
  Ulcer score, treated animals: 2.0
Gastric acid secretion; intraduodenal
  inhibition in vivo at 50 mg/kg: 35%

## CCCCC[C@H](O)/C=C/[C@H]1[C@H](C(C)(C)O)CC(=O)[C@@H]1C/C=C\CCCC(=O)O [11-deoxy-11α-(1-hydroxy-1-methylethyl)prostaglandin-E2]
Gastric acid secretion; sc, subcutaneous, 8 mg/kg
  inhibition in vivo at 8 mg/kg: 31%

## CCCCC[C@H](O)/C=C/[C@H]1[C@@H](CO)C[C@H](O)[C@@H]1C/C=C\CCCC(=O)O [l-11β-hydroxymethyl-11-deoxyprostaglandin-F2 α]
[2]; [4]
  inhibition in vivo at 10 mg/kg: 0%
[2]; [5]
  inhibition in vivo at 10 mg/kg: 43%

## CCCCC[C@H](O)/C=C/[C@@H]1[C@@H](C/C=C\CCCC(=O)O)[C@@H](O)C[C@H]1C(N)=O [11α-carboxamido-11-deoxyprostaglandin F2α]
[1]; [3]
  Ulcer score, treated animals: 2.3
Gastric acid secretion; intraduodenal
  inhibition in vivo at 50 mg/kg: 27%

## CCCCC[C@H](O)/C=C/[C@H]1[C@H](SC)CC(=O)[C@@H]1C/C=C\CCCC(=O)OC [l-11α-methylthio-11-deoxyprostaglandin-E2 methyl ester]
Gastric acid secretion; intraduodenal, 100 mg/kg
  inhibition in vivo at 100 mg/kg: 55%

## CCCCC[C@H](O)/C=C/[C@@H]1[C@@H](C/C=C\CCCC(=O)O)[C@@H](O)C[C@H]1C(C)C [11α-isopropyl-11-deoxyprostaglandin F2α]
[2]; [4]
  inhibition in vivo at 10 mg/kg: 44%
[2]; [5]
  inhibition in vivo at 10 mg/kg: 35%

## CCCCCC(C)/C=C/[C@@H]1[C@@H](C/C=C\CCCC(=O)O)[C@@H](O)C[C@H]1C (stereo partly drawn) [l-9α-hydroxy-11α,15-dimethyl-S--cis,13-trans-prostadienoic acid]
[2]; [4]
  inhibition in vivo at 10 mg/kg: 25%
[2]; [5]
  inhibition in vivo at 10 mg/kg: 20%

## CCCCC[C@H](O)/C=C/[C@H]1[C@H](CC)C[C@H](O)[C@@H]1C/C=C\CCCC(=O)O [l-11α-ethyl-11-deoxyprostaglandin-F2 α, 11α-ethyl-11-deoxyprostaglandin F2α]
[1]; [6]
  Ulcer score, treated animals: 2.2

## CCCCCC(O)/C=C/C1C(S)CC(O)C1C/C=C\CCCC(=O)O (stereo not drawn) [l-11-mercapto-11-deoxprostaglandin-F2 α, l-11-deoxy-11α-mercaptoprostaglandin-F2 α]
[2]; 10 mg/kg, 60 min
  % Inhibition of total acid output, after 60 minutes (A): 44%
[2]; 10 mg/kg, 120 min
  % Inhibition of total acid output, after 120 minutes (B): 55%

## CCCCC[C@H](O)/C=C/[C@H]1C(C#N)CC(=O)[C@@H]1C/C=C\CCCC(=O)OC (stereo partly drawn) [11α/β-cyano-11-deoxyprostaglandin E2 methyl ester]
[1]; [6]
  Ulcer score, treated animals: 1.3
Gastric acid secretion; intraduodenal
  inhibition in vivo at 50 mg/kg: 33%

## CCCCC[C@H](O)/C=C/[C@@H]1[C@@H](C/C=C\CCCC(=O)O)[C@@H](O)C[C@H]1C(C)(C)O [11-deoxy-11α-(1-hydroxy-1-methylethyl)prostaglandin-F2α]
[2]; [4]
  inhibition in vivo at 10 mg/kg: 36%
[2]; [5]
  inhibition in vivo at 10 mg/kg: 35%

## CCCCC[C@@H](/C=C/[C@H]1[C@H](SCC)CC(=O)[C@@H]1C/C=C\CCCC(=O)OC)OC(C)=O [11-deoxy-11α-ethylthio-15-O-acetyl prostaglandin E2 methyl ester]
Gastric acid secretion; intraduodenal
  inhibition in vivo at 50 mg/kg: 27%
[2]; [7]
  inhibition in vivo at 2.5 mg/kg: 54%
  inhibition in vivo at 5 mg/kg: 19%
[2]; [4]
  inhibition in vivo at 10 mg/kg: 80%
[2]; [8]
  inhibition in vivo at 2.5 mg/kg: 51%
  inhibition in vivo at 5 mg/kg: 59%
[2]; [5]
  inhibition in vivo at 10 mg/kg: 24%

## CCCCC[C@@H](/C=C/[C@H]1C(C#N)CC(=O)[C@@H]1C/C=C\CCCC(=O)OC)OC(C)=O (stereo partly drawn) [11α/11β-cyano-11-deoxy-15-O-acetyl-prostaglandin E2 methyl ester]
[1]; total oral dose 12.5 mg/kg, controls 2.5-3.0
  Ulcer score, treated animals: 2.0
[1]; [3]
  Ulcer score, treated animals: 1.3
Gastric acid secretion; intraduodenal, 25 mg/kg
  inhibition in vivo at 25 mg/kg: 51%
[2]; [4]
  inhibition in vivo at 10 mg/kg: 40%
[2]; [5]
  inhibition in vivo at 10 mg/kg: 34%

## CCCCCC(C)/C=C/C1C(C)CC(=O)C1C/C=C\CCCC(=O)O (stereo not drawn) [l-11α,15-dimethyl-11,15-bis-deoxyprostaglandin-E2 α]
[1]; [3]
  Ulcer score, treated animals: 2.2

## CCCCC[C@H](O)/C=C/[C@@H]1[C@@H](C/C=C\CCCC(=O)O)[C@@H](O)C[C@H]1c1ccccc1 [l-11α-phenyl-11-deoxyprostaglandin-F2 α, l-11-deoxy-11α-phenylprostaglandin-F2 α]
[1]; [6]
  Ulcer score, treated animals: 2.0

## CCCCCC(C)/C=C/[C@H]1[C@H](C)CC(=O)[C@@H]1C/C=C\CCCC(=O)OC (stereo partly drawn) [11-deoxy-11α-methyl-15-deoxy-15-methylprostaglandin E2 methyl ester]
Gastric acid secretion; intraduodenal
  inhibition in vivo at 50 mg/kg: 40%

## CCCCC[C@H](O)/C=C/[C@H]1[C@H](C[N+](=O)[O-])C[C@H](O)[C@@H]1C/C=C\CCCC(=O)O [11α-nitromethyl-11-deoxyprostaglandin F2α]
[1]; [3]
  Ulcer score, treated animals: 1.8
Gastric acid secretion; intraduodenal
  inhibition in vivo at 50 mg/kg: 38%
